Consider 5 compounds from US8946302B2, “Selective sigma-1 receptor ligands” (Wisconsin Alumni Research Foundation, priority 2008, dated 2015).

SMILES strings stand for the structures. Like-named read-outs stand apart in the source and are kept apart here. Marks after values point to notes of the source that are not given here.

The target of series [1] is sigma-1 receptor (Homo sapiens, UniProt Q99720). Particulars: literature value; cited from earlier work.
The target in series [2] is sigma-2 receptor (Homo sapiens, UniProt Q5BJF2). Particulars: literature value; cited from earlier work.
A further series concerns NCI-H460. As to the kind of experiment: Cytotoxicity assay NCI-H460. As to conditions: Homo sapiens, HU lung, read-out: IC50 (SE) growth inhibition. It is filed as cell-based. Here is the method:
(§1) Multi-plex cytotoxicity assays were performed by the Keck-UWCCC Small Molecule Screening Facility (Madison, Wis.). Specific methodology can be found online at http://hts.wisc.edu/Resources.htm#mpa.

In the next series the test system is SKOV-3. As to the kind of experiment: Cytotoxicity assay SKOV-3. It is filed as cell-based. As to conditions: Homo sapiens, SK-OV-3, HU Ovarian, read-out: IC50 (SE) growth inhibition. Here is the method: as §1
Another series concerns Du145. As to the kind of experiment: Cytotoxicity assay Du145. As to conditions: Homo sapiens, DU-145, HU Prostate, read-out: IC50 (SE) growth inhibition. It is filed as cell-based. The method, then:
as §1

The test system of the next series is MCF7. As to the kind of experiment: Cytotoxicity assay MCF7. Particulars: Homo sapiens, HU Breast, read-out: IC50 (SE) growth inhibition. It is filed as cell-based. The method, then: as §1
The next series relates to SF268. As to the kind of experiment: Cytotoxicity assay SF268. It is filed as cell-based. Particulars: Homo sapiens, SF-268, HU CNS, read-out: IC50 (SE) growth inhibition. Here is the method:
as §1

A further series deals with A549. As to the kind of experiment: Cytotoxicity assay A549. It is filed as cell-based. As to conditions: Homo sapiens, HU lung, read-out: IC50 (SE) growth inhibition. The method, then:
as §1

The next series concerns MB-MDA-231. Kind of series: Cytotoxicity assay MB-MDA-231. It is filed as cell-based. Particulars: Homo sapiens, HU Breast, read-out: IC50 (SE) growth inhibition. The method, then: as §1
In the next series the test system is HT-29. Kind of series: Cytotoxicity assay HT-29. It is filed as cell-based. Particulars: Homo sapiens, HU Colorectal, read-out: IC50 (SE) growth inhibition. Here is the method:
as §1

The next series has as its system HCT-45. As to the kind of experiment: Cytotoxicity assay HCT-45. Format: cell-based. Particulars: Homo sapiens, HU Colorectal, read-out: IC50 (SE) growth inhibition. The method, then: as §1
For the next series, the system named is MCP10A. Kind of series: Cytotoxicity assay MCP10A. As to conditions: Homo sapiens, HU Breast, read-out: IC50 (SE) growth inhibition. It is filed as cell-based. The method, then: as §1
The subject of the next series is HI299. Kind of series: Cytotoxicity assay HI299. Format: cell-based. As to conditions: Homo sapiens, HU Lung, read-out: IC50 (SE) growth inhibition. The method, then: as §1
Series [3] addresses T1, sigma-2 receptor (Rattus norvegicus, UniProt Q5U3Y7).
T1 sequence (Q5U3Y7 1-176): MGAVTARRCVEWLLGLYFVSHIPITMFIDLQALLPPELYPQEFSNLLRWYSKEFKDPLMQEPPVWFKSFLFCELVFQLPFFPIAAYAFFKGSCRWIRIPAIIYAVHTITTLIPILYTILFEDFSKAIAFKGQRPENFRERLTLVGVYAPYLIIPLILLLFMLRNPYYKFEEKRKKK
More on the design: from tissue; host or cells: rat liver membranes. As to conditions: from Fontanilla et al. Biochemistry 2008; cited from earlier work.

For series [4], the target named is T2, sigma-1 receptor (Cavia porcellus, UniProt Q60492). Details: from tissue; host or cells: guinea pig liver membranes. Particulars: from Fontanilla et al. Biochemistry 2008; cited from earlier work.
For another series, the system named is tumor cell lines. As to the kind of experiment: Cytotoxicity assays, various tumor cell lines (statements in words). Format: cell-based, human. Here is the method: Because sigma-1 receptors are overexpressed in numerous tumor cell lines, which include breast cancer, lung carcinoma, renal carcinoma, colon carcinoma, sarcoma, brain tumors, melanoma, glioblastoma, neuroblastoma, and prostate cancer, the ability of the compounds to inhibit the growth of various tumor cell lines were tested.
as §1

Series [5] addresses T3, sigma-1 receptor (Rattus norvegicus, UniProt Q9R0C9).
T3 construct: from tissue; host or cells: rat liver membranes
Kind of series: Protection of [125I]-IACoc photolabeling in rat liver membranes. It is filed as binding.
Protocol: (§5) Rat liver membranes (100 μg/lane) were suspended in the presence or absence of the protecting drugs. […] Percent band intensities are shown compared to controls performed in the absence of protecting ligand (−).

The target in series [6] is T3, sigma-1 receptor. Kind of series: Protection of [125I]IAF photolabeling of the sigma-1 receptor in rat liver membranes. It is filed as binding.
Protocol: as §5
Series [7] deals with human cardiac Na+ channel hNav1.5. Kind of series: Patch clamp INa in HEK293 cells stably expressing hNav1.5. Particulars: 100 μM, n=3. Format: cell-based. Here is the method:
(§2) To evaluate the capacity of DMT to induce physiological responses by binding to sigma receptors, the action of DMT on voltage-activated Na^+ current was examined. […] Application of 100 μM DMT inhibited INa by 62±3% (n=3), which reversed upon DMT removal. With hNav1.5 transiently transfected into COS-7 cells, 100 μM DMT inhibited INa by only 22±4% (n=3), but photolabeling has shown that these cells have much lower levels of endogenous sigma-1 receptor compared to HEK293 cells (26) (FIG. 7b).
(§3) HEK293 cells stably expressing hNav1.5 were provided by Dr. J. C. Makielski at the University of Wisconsin-Madison (32). COS-7 cells were transiently transfected with recombinant cDNA encoding hNav1.5 using Lipofectamine. Both cell types were cultured on glass coverslips at 37° C. in 5% CO2/air atmosphere, and used for electrophysiological recordings within 3-5 days.
(§4) INa was recorded using whole-cell patch clamp at room temperature. All patch clamp solutions used as well as patch clamp methodology and instrumentation details are previously described (26) with the exception of testing INa inhibition with 100 μM DMT.
In general terms: In patch-clamp work, channel activity is measured electrically.

The next series concerns hNav1.5. Kind of series: Patch clamp INa in COS-7 cells transiently transfected with hNav1.5. It is filed as cell-based, human. As to conditions: 100 μM, n=3. The method, then:
as §2, §3, §4

The test system of series [8] is INa in neonatal mouse cardiac myocytes. As to the kind of experiment: Patch clamp INa in neonatal cardiac myocytes from WT and sigma-1 receptor KO mice. Format: cell-based. Particulars: n=7. Here is the method: Neonatal mouse cardiac myocytes were enzymatically isolated and cultured on laminin-coated glass coverslips as previously described (33, 34) with minor changes (26).
as §4

For series [9], the system named is WT and sigma-1 receptor knockout mice. As to the kind of experiment: Open-field hypermobility assay in WT and sigma-1 receptor KO mice. Format: in vivo, mouse. As to conditions: 2 mg/kg i.p. two hours after pargyline 75 mg/kg i.p.
Protocol: All mice were maintained on a normal light/dark cycle and handled in accordance with Animal Care and Use Guidelines of the University of Wisconsin, Madison. […] Mice were first acclimatized to the experimental room for one hour. WT and KO mice were injected with the monoamine oxidase inhibitor, pargyline (75 mg/kg, i.p.) two hours prior to DMT or vehicle injection(28). […] Each condition represents 8 to 14 mice (n=8-14). […] A computer program was used to quantitate movement and after each experiment, 70% ethanol was used to remove odors from the open-field.
In series [10] the target is T2, sigma-1 receptor. As to the kind of experiment: Affinity for the sigma-1 receptor (Table 3). Format: binding. Details: from tissue.

T3 sequence (Q9R0C9 whole entry): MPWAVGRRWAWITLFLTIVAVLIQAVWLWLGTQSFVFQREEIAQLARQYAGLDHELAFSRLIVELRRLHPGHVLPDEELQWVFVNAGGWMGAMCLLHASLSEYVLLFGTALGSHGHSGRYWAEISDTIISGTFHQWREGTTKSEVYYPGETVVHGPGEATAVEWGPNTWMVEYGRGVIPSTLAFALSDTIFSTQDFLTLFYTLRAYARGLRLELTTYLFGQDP
T2 sequence (Q60492 whole entry): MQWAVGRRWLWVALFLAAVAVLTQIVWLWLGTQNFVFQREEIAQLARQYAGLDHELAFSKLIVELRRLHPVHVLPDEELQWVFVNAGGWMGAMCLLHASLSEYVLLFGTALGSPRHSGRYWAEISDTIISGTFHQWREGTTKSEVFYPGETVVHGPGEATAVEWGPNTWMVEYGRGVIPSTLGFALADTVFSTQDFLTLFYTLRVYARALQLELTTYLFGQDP
sigma-1 receptor (Homo sapiens, UniProt Q99720), sequence (Q99720 whole entry, species assumed): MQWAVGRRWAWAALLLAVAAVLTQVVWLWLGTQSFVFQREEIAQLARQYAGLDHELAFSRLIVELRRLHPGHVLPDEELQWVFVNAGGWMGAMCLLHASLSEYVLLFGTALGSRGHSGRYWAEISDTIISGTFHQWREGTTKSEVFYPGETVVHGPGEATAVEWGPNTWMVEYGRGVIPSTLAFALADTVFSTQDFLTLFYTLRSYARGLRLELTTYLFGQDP
sigma-2 receptor (Homo sapiens, UniProt Q5BJF2), sequence (Q5BJF2 whole entry, species assumed): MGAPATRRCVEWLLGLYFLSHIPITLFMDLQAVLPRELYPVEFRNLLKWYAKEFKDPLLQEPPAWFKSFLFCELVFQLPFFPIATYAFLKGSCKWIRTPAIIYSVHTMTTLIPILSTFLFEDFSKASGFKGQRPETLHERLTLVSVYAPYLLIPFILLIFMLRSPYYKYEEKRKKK

In the case of `CC1CN(CCCc2ccc(N=[N+]=[N-])c([125I])c2)CC(C)O1` (centres unmarked) [[^125I]IAF, 1-N-(2′,6′-dimethyl-morpholino)-3-(4-azido-3-[^125I]iodo-phenyl)propane], the Kd at sigma-1 receptor [1] was 0.194 µM; at sigma-2 receptor [2], 2.78 µM.

With `CCCN(CCCc1ccc(F)cc1)CCc1ccc(N)cc1` [Compound 20, N-propyl-N-(4-aminophenyl-ethyl)-3-(4-fluorophenyl)propylamine], the IC50 in the series with NCI-H460 is 44.8 µM; with SKOV-3 it was 20.2 µM; in the series with Du145, greater than 100 µM; in the series with MCF7, 41.3 µM; in the series on SF268 it was greater than 100 µM; with A549 it was greater than 100 µM. The IC50 in the series on MB-MDA-231 was 86.1 µM; in the series on HT-29, greater than 100 µM; in the series with HCT-45, greater than 100 µM; in the series with MCP10A, greater than 100 µM; in the series with HI299 it was greater than 100 µM. The Kd on sigma-2 receptor [3] was 0.12 µM; on sigma-1 receptor [4], 2.59 µM. Besides, at sigma-1 receptor [4], the “Ratio (σ2/σ1)” value was 0.046^c.

As to `COC(=O)C1C(OC(=O)c2ccc(N=[N+]=[N-])c(I)c2)CC2CCC1N2C` (centres unmarked) [[^125I]-IACoc, 3-[^125I]iodo-4-azidococaine], the Kd at sigma-1 receptor [1] was 0.000126 µM.

As to `CCCN(CCCc1ccc(F)cc1)CCc1ccc(N=[N+]=[N-])c(I)c1` [Compound 19], the IC50 is 40.3 µM in the series on NCI-H460; greater than 100 µM in the series on SKOV-3; 13.1 µM in the series on Du145; 16.8 µM in the series with MCF7; 38.8 µM with SF268; greater than 100 µM with A549. For the same compound, the IC50 was 21.6 µM with MB-MDA-231; 36.4 µM in the series with HT-29; 54.1 µM with HCT-45; 86.6 µM in the series on MCP10A; 90.8 µM in the series on HI299. Also, the “cytotoxicity / tumor cell growth inhibition” value with tumor cell lines is “non-specifically cytotoxic in almost all the cell lines tested”. Besides, the results for the Kd at sigma-2 receptor [3] and on sigma-1 receptor [4] were 1.29 µM and 7.24 µM, respectively. The “Ratio (σ2/σ1)” value at sigma-1 receptor [4] is 0.178^c.

`CN(C)CCc1c[nH]c2ccccc12` [DMT, 2-(1H-indol-3-yl)-N,N-dimethylethylamine]: the “protection of [125I]-IACoc photolabeling of the 26 kDa sigma-1 receptor” value is given as 61% on sigma-1 receptor [5] (50 μM) and roughly 100% at sigma-1 receptor [5] (100 μM). Also, the “protection of [125I]IAF photolabeling of the sigma-1 receptor” value was 31% at sigma-1 receptor [6] (10 μM), 43% at sigma-1 receptor [6] (50 μM) and 69% on sigma-1 receptor [6] (100 μM). Further, the “inhibition of INa” value is listed as 62±3% in series [7] and 22±4% in the series with hNav1.5. Moreover, the figures for the inhibition at 100 µM in [8] (KO myocytes) and in series [8] (WT neonatal cardiac myocytes) were 7 ± 2% and 29 ± 3%, respectively. The “distance traveled in open-field assay (hypermobility)” value in series [9] (WT mice) is on record as 7025±524.1 cm; in series [9] (sigma-1 receptor KO mice), 2328±322.9 cm. The Kd at sigma-1 receptor [10] came to 14.6 µM.

A word on the Kd: it is the concentration at which binding is half-saturated. By inhibition is commonly meant the share of the control response that was lost under treatment. Low readings indicate a weak effect, high ones a strong effect.
